In patent publication US11524950B2, “Treatment of immune-related and inflammatory diseases” (Celgene Corporation, priority 2012, dated 2022):
Like-named read-outs stand apart in the source and are kept apart here.

How the values were obtained:
[1] = test system: Human umbilical vascular endothelial cells; assay: Human umbilical vascular endothelial cell invasion assay; assay type: cell-based; settings: for IC50: Homo sapiens; for VEGF-, bFGF-, and HGF-induced HUVEC invasion: dose-dependent
Experimental: Human Umbilical Vascular Endothelial Cell Invasion Assay: In the HUVEC invasion assay, the concentration of human fibronectin is optimized to provide a suitable protein structure for adherent cells to attach to the membrane and allow free migration in response to an angiogenic stimulus (e.g. VEGF, bFGF, or HGF) in the lower chamber of the insertplate. HUVECs were starved in 0.1% BSA EBM2 medium for 6 hours after washing with the same medium 3 times. The cells were then trypsinized and centrifuged to remove the remaining trypsin. Then ˜0.5 to 1×10^6 cells in 125 μL/well and 125 μL of […] serially diluted compounds (10, 1, 0.1, 0.01, 0.001 μM) were added to the upper chamber of the BD Falcon 24-well and 96-well insert plates in duplicate and incubated for […]. (The plates contain a fluorescence blocking, microporous [3.0 μm pore size] PET membrane that has been evenly coated with human fibronectin.) Seven hundred fifty microliters of a 1.33×stock solution of VEGF (final concentration of 25 ng/mL), bFGF (final concentration of 10 ng/mL), or HGF (final concentration of 25 ng/mL) were then added to the lower chamber. The cells were incubated for 22±1 hours at 37° C. The migrated cells were stained with calcein AM at […] in HBSS containing 2% FBS, using 500 μL/well in 24-well plates and 200 μL/well in 96-well plates. The plates were incubated at 37° C. for 90 minutes and read in a fluorescence plate reader.
The percentage inhibition of cell proliferation, tube formation, migration, and invasion was calculated by subtracting the result for unstimulated DMSO control from test sample results, averaging all replicates, and normalizing to the growth factor-stimulated DMSO control (0% inhibition). The IC50 values were calculated by using GraphPad Prism 5.0.

RANTES = assay: LPS-stimulated hPBMC cytokine production: RANTES enhancement; assay type: cell-based, human; settings: at 0.1 μM
Experimental: (§1) 50 ml human buffy coat was aliquoted 25 ml each into two 50 ml conical tubes and 25 ml sterile HBSS was added to each conical tube. The tubes were gently mixed by inverting. Fifteen ml of room temperature Ficoll-Paque Plus (GE Healthcare (location); cat #17-1440-02) was aliquoted into four 50 ml conical tubes. Then 25 ml of the Buffy coat/HBSS mixture was layered gently and slowly on top of the Ficoll. The samples were centrifuged at 450 rpm for 35 minutes. The top layered containing plasma was pipetted off and discarded. The interface containing mononuclear cells was transferred into two 50 ml conical tubes. Both conical tubes were filled to total volume of 50 ml with HBSS and centrifuged at 1200 rpm for 10 minutes. The cells were washed again in HBSS and spun at 1000 rpm for 10 minutes. Cell pellet was resuspended with 20 ml RPMI complete medium (RPMI/5% human sera/1× pen/strep/glut) and counted.
(§2) One hundred μl (2×10^6/ml) of hPBMCs were added to each well of a 96 well flat-bottom plate (final cell count=2×10^5/well) and incubated at 37° C. for 1 hour. […] compound was added to each test well and twenty μl medium containing 2.5% DMSO was added to each control well ([DMSO]final=0.25%) and plate was incubated for 1 hour at 37° C. Cells were then stimulated with […] 2.5 ng/ml LPS ([LPS]final=1 ng/ml) and incubated for 18 hours at 37° C.
(§3) 50 μl supernatant from each well was transferred into 3 new round-bottomed 96 well plates and stored at −20° C. for Luminex analysis. Duplicate wells were performed for each sample.
(§4) Supernatant samples were analyzed for cytokines in multiplex format according to the manufacturer's instructions (Millipore, Billerica, Ma 01821) using a Luminex IS100 instrument. IL-12 and GM-CSF analyses were done in a two-plex format using neat supernatants while all other cytokines were done in a multiplex format using supernatants diluted 1:20. Data analysis was performed using Upstate Beadview software. […] The IC50 were performed using GraphPad Prism v5.00. […]

IL-1β = assay: LPS-stimulated hPBMC cytokine production: IL-1β; assay type: cell-based; settings: Homo sapiens; LPS 1 ng/ml, 18 hours
Experimental: as §1, §2, §3, §4

MIP-1α = assay: LPS-stimulated hPBMC cytokine production: MIP-1α; assay type: cell-based; settings: Homo sapiens
Experimental: as §1, §2, §3, §4

IL-8 = assay: LPS-stimulated hPBMC cytokine production: IL-8; assay type: cell-based; settings: Homo sapiens; LPS 1 ng/ml, 18 hours
Experimental: as §1, §2, §3, §4

TNF-α = assay: LPS-stimulated hPBMC cytokine production: TNF-α; assay type: cell-based; settings: Homo sapiens; LPS 1 ng/ml, 18 hours
Experimental: as §1, §2, §3, §4

NK cell IFN-γ production = assay: NK IgG-induced interferon-gamma (IFN-gamma) assay; assay type: cell-based; settings: Homo sapiens, 48 h
Experimental: NK cells from healthy donors were isolated from buffy coat blood by negative selection using the RosetteSep NK cell enrichment cocktail (Stem Cell Technologies, Vancouver, BC) prior to Ficoll-Hypaque (Fisher Scientific Co LLC, PA) density gradient centrifugation following the manufacturers' instructions. CD56+NK cells were isolated to ˜85% purity, as determined by flow cytometry (BD Biosciences, CA).
Ninety-six-well flat-bottom plates were coated with 100 μg/mL of human IgG (Sigma) overnight at 4° C. The next day, unbound IgG was washed away with cold 1×PBS. NK cells were then plated in the IgG-coated 96-well plates at 2×10^5 cells per well in 180 μL RPMI-1640 Media and 10 ng/mL of rhIL-2 (R & D Systems, MN) was added. Test compounds were added in a volume of […]. Final concentrations of test compounds were 0.0001, 0.001, 0.01, 0.1, 1, or 10 μM. Final DMSO concentrations were 0.25%. After 48 hours, the supernatants were harvested and analyzed by ELISA for IFN-γ production.
Data used to determine the ability of test compounds to enhance NK cell IFN-γ production in response to immobilized IgG and rhIL-2 stimulation was analyzed for each donor using GraphPad Prism v5.0 software.

[2] = Endothelial cell, HGF 25 ng/mL, read-out: HGF-induced invasion IC50 Values
[3] = Endothelial cell, VEGF 25 ng/mL, read-out: VEGF-induced invasion IC50 Values
[4] = Endothelial cell, bFGF 10 ng/mL, read-out: bFGF-induced invasion IC50 Values
[5] = HUVEC, growth factor not given, read-out: IC50 (HUVEC invasion)
[6] = LPS 1 ng/ml, 18 hours, read-out: MIP-1α IC50

| SMILES | IC50 [1, 2] [nM] | IC50 [1, 3] [nM] | IC50 [1, 4] [nM] | IC50 [1, 5] [nM] | VEGF-, bFGF-, and HGF-induced HUVEC invasion [1] | RANTES Mean % of Control (RANTES) | IC50 (IL-1β) [nM] | IC50 (MIP-1α; [6]) [µM] | IC50 (IL-8) [nM] | IC50 (TNF-α) [nM] | EC50 (NK cell IFN-γ production) [nM] | IC50 (MIP-1α; 18 h, read-out: MIP-1α IC50 (μM)) [µM] |
| --- | --- | --- | --- | --- | --- | --- | --- | --- | --- | --- | --- | --- |
| O=C1CC[C@@H](N2Cc3c(OCc4ccc(CN5CCOCC5)cc4)cccc3C2=O)C(=O)N1 [R-enantiomer, (R)-3-[4-(4-morphlin-4-ylmethylbenzyloxy)-1-oxo-1,3-dihydro-isoindo-2-yl]piperidine-2,6-dione] | 450 | < 0.1 | 13 | 13 | significantly inhibited | 151 % of control | 6.2 | 0.45 | > 10000 | 9.5 | 16 |  |
| O=C1CCC(N2Cc3c(OCc4ccc(CN5CCOCC5)cc4)cccc3C2=O)C(=O)N1 (racemic) [Racemate, 3-[4-(4-morphlin-4-ylmethylbenzyloxy)-1-oxo-1,3-dihydro-isoindo-2-yl]piperidine-2,6-dione] | 590 | 0.14 | 0.42 | 0.4 | significantly inhibited | 153 % of control | 0.85 |  | > 10000 | 1.8 | 37 | 0.19 |
| O=C1CC[C@H](N2Cc3c(OCc4ccc(CN5CCOCC5)cc4)cccc3C2=O)C(=O)N1 [Test compound, (S)-3-[4-(4-morphlin-4-ylmethylbenzyloxy)-1-oxo-1,3-dihydro-isoindo-2-yl]piperidine-2,6-dione] | 19 | < 0.1 | < 0.1 | < 0.1 | significantly inhibited | 153 % of control | 0.46 | 0.028 | > 10000 | 0.59 | 12 |  |
